A short description of this data set: in vitro. The conditions noted are these: human, hek293t cells.
With `N#CC(=Cc1ccc(N2CCCC2)cc1)C(=O)N1CCC(C(N)=O)CC1` [9-K12, 1-(2-cyano-2-{[4-(pyrrolidin-1-yl)phenyl]methylidene}acetyl)piperidine-4-carboxamide], the viability at 48 h, 25 µM was 108%.

For `N#CC(=Cc1cccc(O)c1)C(=O)Nc1ccc(SC(F)F)cc1` [9-C19, 2-cyano-N-{4-[(difluoromethyl)sulfanyl]phenyl}-3-(3-hydroxyphenyl)prop-2-enamide], the viability at 48 h, 25 µM turned out to be 99.7%.

As to `CCc1nc(C2CCCN2C(=O)CCl)no1` (stereo not drawn) [5-C08, 2-chloro-1-[2-(5-ethyl-1,2,4-oxadiazol-3-yl)pyrrolidin-1-yl]ethan-1-one], the viability at 48 h, 25 µM was 1.18%.

Consider `C=CC(=O)NCCn1cc(Cl)c(C(F)(F)F)n1` [2-F03, N-{2-[4-chloro-3-(trifluoromethyl)-1H-pyrazol-1-yl]ethyl}prop-2-enamide], for which the viability at 48 h, 25 µM stood at 81.6%.

Turning to `CC(Cl)C(=O)NC1CCCc2ccccc21` (stereo not drawn) [5-M19, 2-chloro-N-(1,2,3,4-tetrahydronaphthalen-1-yl)propanamide], the viability at 48 h, 25 µM stood at 74.2%.

For the compound `CC(Cl)C(=O)NC(C)c1ccns1` (stereo not drawn) [6-P12, 2-chloro-N-[1-(1,2-thiazol-5-yl)ethyl]propanamide], the viability at 48 h, 25 µM is 115%.

`CC(Cl)C(=O)NCc1csc(-c2ccco2)n1` (stereo not drawn) [7-K05, 2-chloro-N-{[2-(furan-2-yl)-1,3-thiazol-4-yl]methyl}propanamide]: the viability at 48 h, 25 µM was 90.6%.

With `C[C@@H](NC(=O)CCl)c1ccc(F)cc1` [6-G21, 2-chloro-N-[(1R)-1-(4-fluorophenyl)ethyl]acetamide], the viability at 48 h, 25 µM stood at 129%.

Turning to `N#CC(=Cc1ccc(Cl)cc1)C(=O)Nc1ccccn1` [9-H16, 3-(4-chlorophenyl)-2-cyano-N-(pyridin-2-yl)prop-2-enamide], the viability at 48 h, 25 µM was found to be 128%.

With `COc1cc(NC(=O)CCl)c(Cl)cc1C(=O)O` [4-M17, 5-chloro-4-(2-chloroacetamido)-2-methoxybenzoic acid], the viability at 48 h, 25 µM was 1.05%.

Take `N#CC(=Cc1ccc(F)c([N+](=O)[O-])c1)C(=O)Nc1ccc(F)cc1` [8-D04, 2-cyano-3-(4-fluoro-3-nitrophenyl)-N-(4-fluorophenyl)prop-2-enamide]: the viability at 48 h, 25 µM was determined as 1.12%.

As to `O=C(CCl)Nc1nc(-c2ccccc2)cs1` [4-L04, 2-chloro-N-(4-phenyl-1,3-thiazol-2-yl)acetamide], the viability at 48 h, 25 µM was -0.0639%.

Consider `C=CC(=O)NCCNS(=O)(=O)c1cc(C)sc1C` [3-C21, N-[2-(2,5-dimethylthiophene-3-sulfonamido)ethyl]prop-2-enamide], for which the viability at 48 h, 25 µM was determined as 34.6%.

In the case of `CC(C)c1ccccc1NC(=O)CCl` [4-F06, 2-chloro-N-[2-(propan-2-yl)phenyl]acetamide], the viability at 48 h, 25 µM is 1.92%.

For the compound `N#Cc1ccc(N2C(=O)C=CC2=O)cc1` [10-B09, 4-(2,5-dioxo-2,5-dihydro-1H-pyrrol-1-yl)benzonitrile], the viability at 48 h, 25 µM was 82.1%.

In the case of `C=CC(=O)NCc1ccc(C(=O)N2CCNC(=O)CC2)cc1` [3-I04, N-{[4-(5-oxo-1,4-diazepane-1-carbonyl)phenyl]methyl}prop-2-enamide], the viability at 48 h, 25 µM was determined as 93.2%.

Consider `C=CC(=O)N1CCCn2nc(CO)cc2C1` [3-M10, 1-[2-(hydroxymethyl)-4H,5H,6H,7H,8H-pyrazolo[1,5-a][1,4]diazepin-5-yl]prop-2-en-1-one], for which the viability at 48 h, 25 µM amounted to 109%.

Take `CC(Cl)C(=O)N1CCN(Cc2ccc3ccccc3n2)CC1` (stereo not drawn) [7-A15, 2-chloro-1-{4-[(quinolin-2-yl)methyl]piperazin-1-yl}propan-1-one]: the viability at 48 h, 25 µM came to 83.2%.

For the compound `CC(Cl)C(=O)NCCC1=CCCCC1` (stereo not drawn) [6-E11, 2-chloro-N-[2-(cyclohex-1-en-1-yl)ethyl]propanamide], the viability at 48 h, 25 µM worked out at 99%.

As for `CCN(Cc1ccc2c(c1)OCO2)C(=O)CCl` [5-L07, N-[(1,3-dioxaindan-5-yl)methyl]-2-chloro-N-ethylacetamide], the viability at 48 h, 25 µM is 0.477%.

For the compound `N#CCCN(Cc1ccco1)C(=O)CCl` [5-D20, 2-chloro-N-(2-cyanoethyl)-N-[(furan-2-yl)methyl]acetamide], the viability at 48 h, 25 µM was 1.25%.

Take `Cc1nn(CC(C)C)c(Cl)c1C1CCCN1C(=O)CCl` (stereo not drawn) [5-L13, 2-chloro-1-{2-[5-chloro-3-methyl-1-(2-methylpropyl)-1H-pyrazol-4-yl]pyrrolidin-1-yl}ethan-1-one]: the viability at 48 h, 25 µM was 0.964%.

As to `N#CC(=Cc1ccsc1)C(=O)NCc1ccc(Cl)cc1` [8-I15, N-[(4-chlorophenyl)methyl]-2-cyano-3-(thiophen-3-yl)prop-2-enamide], the viability at 48 h, 25 µM was determined as 101%.

`CCCN(Cc1ccc(C)cc1)C(=O)CCl` [5-J09, 2-chloro-N-[(4-methylphenyl)methyl]-N-propylacetamide]: the viability at 48 h, 25 µM came to 0.952%.

With `C=CC(=O)N(Cc1ccc2cnn(C)c2c1)CC(C)(C)C` [2-O05, N-(2,2-dimethylpropyl)-N-[(1-methyl-1H-indazol-6-yl)methyl]prop-2-enamide], the viability at 48 h, 25 µM is 102%.

`Cc1ccccc1NC(=O)C(C#N)=Cc1cc2c(cc1[N+](=O)[O-])OCO2` [9-P11, 2-cyano-N-(2-methylphenyl)-3-(6-nitro-1,3-dioxaindan-5-yl)prop-2-enamide]: the viability at 48 h, 25 µM worked out at 120%.

Turning to `Cc1ccc(CC(=O)CCl)cc1` [10-O13, 1-chloro-3-(4-methylphenyl)propan-2-one], the viability at 48 h, 25 µM worked out at 67.6%.

For `CCCCNC(=O)C(C#N)=Cc1cc(C)c(O)c(C)c1` [9-E09, N-butyl-2-cyano-3-(4-hydroxy-3,5-dimethylphenyl)prop-2-enamide], the viability at 48 h, 25 µM came to 111%.

On to `O=C(CCl)Cc1ccc(C(F)(F)F)cc1` [10-C19, 1-chloro-3-[4-(trifluoromethyl)phenyl]propan-2-one], for which the viability at 48 h, 25 µM was found to be 1.02%.

Regarding `CC(Cl)C(=O)NCc1nnnn1CC1CC1` (stereo not drawn) [6-F14, 2-chloro-N-{[1-(cyclopropylmethyl)-1H-1,2,3,4-tetrazol-5-yl]methyl}propanamide], the viability at 48 h, 25 µM stood at 115%.

Consider `Cc1ccc(CN(Cc2c(C)noc2C)C(=O)CCl)c(C)c1` [5-N03, 2-chloro-N-[(3,5-dimethyl-1,2-oxazol-4-yl)methyl]-N-[(2,4-dimethylphenyl)methyl]acetamide], for which the viability at 48 h, 25 µM was determined as 1.14%.

Regarding `CC(Cl)C(=O)Nc1ccc([N+](=O)[O-])cc1C#N` (stereo not drawn) [5-I15, 2-chloro-N-(2-cyano-4-nitrophenyl)propanamide], the viability at 48 h, 25 µM is 78.6%.

As to `C=CC(=O)NCc1cscn1` [1-I07, N-[(1,3-thiazol-4-yl)methyl]prop-2-enamide], the viability at 48 h, 25 µM came to 69.5%.

`C=CC(=O)NCCC(=O)Nc1nc2n(n1)CCCC2` [2-M14, N-[2-({5H,6H,7H,8H-[1,2,4]triazolo[1,5-a]pyridin-2-yl}carbamoyl)ethyl]prop-2-enamide]: the viability at 48 h, 25 µM came to 109%.

Consider `C=CC(=O)Nc1ccc2c(c1)N(CC#N)CC2` [1-C19, N-[1-(cyanomethyl)-2,3-dihydro-1H-indol-6-yl]prop-2-enamide], for which the viability at 48 h, 25 µM stood at 94.7%.

With `COCC1(NC(=O)C(C)Cl)CC=CCC1` (stereo not drawn) [6-J13, 2-chloro-N-[1-(methoxymethyl)cyclohex-3-en-1-yl]propanamide], the viability at 48 h, 25 µM stood at 107%.

In the case of `C=CC(=O)Nc1cccc(N2CCOCC2)c1` [1-K04, N-[3-(morpholin-4-yl)phenyl]prop-2-enamide], the viability at 48 h, 25 µM was 74.1%.

Consider `Cn1c(-c2ccccc2)c(C(=O)CCl)c2ccccc21` [10-N04, 2-chloro-1-(1-methyl-2-phenyl-1H-indol-3-yl)ethan-1-one], for which the viability at 48 h, 25 µM is 1.67%.

As to `c1ccc(CSSCc2ccccc2)cc1` [10-O21, [(benzyldisulfanyl)methyl]benzene], the viability at 48 h, 25 µM was 100%.

As for `N#CC(=Cc1cc(F)ccc1F)C(=O)Nc1cc(Cl)ccc1Cl` [8-A12, 2-cyano-N-(2,5-dichlorophenyl)-3-(2,5-difluorophenyl)prop-2-enamide], the viability at 48 h, 25 µM worked out at 61%.

`C=CC(=O)NC1CCN(c2ccccc2S(=O)(=O)CC)CC1` [2-M03, N-{1-[2-(ethanesulfonyl)phenyl]piperidin-4-yl}prop-2-enamide]: the viability at 48 h, 25 µM was determined as 82.2%.

`Cc1ccc(Sc2ccc(NC(=O)CCl)cc2)c(C)c1` [4-I03, 2-chloro-N-{4-[(2,4-dimethylphenyl)sulfanyl]phenyl}acetamide]: the viability at 48 h, 25 µM stood at 0.0415%.

`CCc1ccc(CC)c(C(=O)CCl)c1` [10-H14, 2-chloro-1-(2,5-diethylphenyl)ethan-1-one]: the viability at 48 h, 25 µM is 33.6%.

For `Cc1cc(C)n(C2CN(C(=O)C(C)Cl)C2)n1` (stereo not drawn) [7-F15, 2-chloro-1-[3-(3,5-dimethyl-1H-pyrazol-1-yl)azetidin-1-yl]propan-1-one], the viability at 48 h, 25 µM was found to be 85.3%.

Consider `C=CC(=O)NCCC(=O)N1CCSC(C)CC1` (stereo not drawn) [2-K08, N-[3-(7-methyl-1,4-thiazepan-4-yl)-3-oxopropyl]prop-2-enamide], for which the viability at 48 h, 25 µM stood at 91.8%.

Regarding `O=C1C=CC(=O)N1c1cnccn1` [10-P07, 1-(pyrazin-2-yl)-2,5-dihydro-1H-pyrrole-2,5-dione], the viability at 48 h, 25 µM is 103%.

With `Cc1ccc(SCCNC(=O)CCl)cc1` [4-K21, 2-chloro-N-{2-[(4-methylphenyl)sulfanyl]ethyl}acetamide], the viability at 48 h, 25 µM is 1.65%.

`COC(=O)c1c(NC(=O)CCl)sc2c1CCC(C(C)(C)C)C2` (stereo not drawn) [4-J19, methyl 6-tert-butyl-2-(2-chloroacetamido)-4,5,6,7-tetrahydro-1-benzothiophene-3-carboxylate]: the viability at 48 h, 25 µM amounted to 69.6%.

As for `CC(=O)Nc1ccc(C2=NN(C(=O)CCl)C(c3ccco3)C2)cc1` (stereo not drawn) [4-G22, N-{4-[1-(2-chloroacetyl)-5-(furan-2-yl)-4,5-dihydro-1H-pyrazol-3-yl]phenyl}acetamide], the viability at 48 h, 25 µM was determined as 0.156%.

`C=CC(=O)Nc1cc(-c2ccco2)nn1C(C)(C)C` [1-K19, N-[1-tert-butyl-3-(furan-2-yl)-1H-pyrazol-5-yl]prop-2-enamide]: the viability at 48 h, 25 µM is 118%.

For the compound `Cc1cc(C)c(NC(=O)C(C)Cl)c(C)c1` (stereo not drawn) [5-K15, 2-chloro-N-(2,4,6-trimethylphenyl)propanamide], the viability at 48 h, 25 µM was found to be 140%.

The values above are taken from article PMC11995724, “Antibiotic target discovery by integrated phenotypic and activity-based profiling of electrophilic fragments” (Cell chemical biology, 2025).
